Experimental data as given in PMC9095593, “On Methods for the Measurement of the Apelin Receptor Ligand Apelin” (Scientific Reports, 2022).
Where two headings read alike, the source gives them in different places. Where no end group is shown, it is not given here.

Columns and labels:
[1] = cited from earlier work
Source text: However, acidification can be appl ...

Furin (PCSK3) = settings: cited from earlier work
Source text: (§1) Table 1 Enzymatic processing of apelin. | column: Conversion

Prolyl carboxypeptidase = settings: cited from earlier work
Source text: as §1

[2] = system: G-protein-coupled apelin receptor (AR); design: method as in PMID 23872001, PMID 18272843, PMID 29357134; settings: cited from earlier work
Source text: Apelin is expressed as a 77–amino acid precursor, and the C-terminal 17 residues are completely conserved in mammalians. Enzymatic processing (overviewed in Table 1) results in several active C-terminal fragments named apelin-n, specifying that a given isoform has “n” amino acids, all sharing the same 12 C-terminal residues that contain the receptor-binding site (Fig. 1).

[3] = Influence of cooling on ice and P100 protease inhibitor cocktail on peptide stability; settings: HPLC-MS/MS, measured in triple; for Influence of the P100 tube (protease inhibitor cocktail) on stability: P100 vs K2EDTA, immediately, 30 and 60 min on ice or at room temperature; for Effect of cooling with ice on stability: spiked on K2EDTA and P100 plasma, measured immediately and after 30 and 60 min on ice or at room temperature
Procedure: The samples were measured immediately, and after 30 and 60 min on ice or at room temperature (Fig. 6). All samples were measured in triple.
The samples were measured immediately, or after 30 and 60 min on ice or at room temperature.

[4] = Stability of spiked synthetic peptides in plasma according to the preanalytical condition (immediately vs 60 min at room temperature); settings: HPLC-MS/MS; for Degradation after one hour at room temperature: spiked synthetic peptide; for Appearance of apelin-pyr-13 after spiking synthetic apelin-13: after 60 min; for Degradation at the immediate measurement in non-acidified conditions: non-acidified plasma, measured immediately after spiking
Source text: We aimed to minimalize degradation after sampling with a preanalytical protocol summarized in Fig. 3, including immediate cooling and rapid processing of samples. […] However, acidification can be applied only after separation by centrifugation of whole blood into a plasma and a cell compartment, because acidification of whole blood would lead to hemolysis and coagulation, rendering the blood samples unsuitable for further measurements. Therefore, we used protease inhibitor cocktail-containing K2EDTA-coated P100 blood tubes and a mechanical plasma separator (366422 BD Biosciences, San Jose, CA, USA)[19]. The aim of the protease inhibitor cocktail is to inactivate proteolytic degradation by enzymes present in whole blood; the mechanical separator prevent contact with cell-bound enzymes, both theoretically limiting enzymatic degradation of apelin during the several minutes between blood collection in the tube and completed plasma separation and acidification.
Figure 3 Overview of preanalytical conditions. Samples were immediately cooled on ice and processed within 1 h. Both standard K2EDTA tubes and P100 prechilled tubes containing a protease inhibitor cocktail and mechanical separator were used. The standard K2EDTA was centrifuged for 10 min 1300 × g at 4 °C, while the P100 tube was centrifuged for 20 min 2500 × g at 4 °C, according to the manufacturers’ instructions. After separation, plasma was untreated or acidified to either pH 2.5 or 4.5 by adding the plasma to low protein-binding tubes pre-filled with either phosphoric acid or formic acid. The plasma samples were stored directly at − 20 °C and transferred within 4 h at − 80 °C.
Spiking of individual peptides was performed on plasma collected in K2EDTA tubes, stored either non-acidified, or acidified to pH 4.5 or pH 2.5 and on plasma collected in P100 tubes, stored either non-acidified, or acidified to pH 4.5 and pH 2.5. The samples were measured both immediately and after 60 min at room temperature, each sample was measured 3 times.

Kallikrein = settings: cited from earlier work
Source text: as §1

[5] = previously described plasma acidification step to pH 4.5
[6] = K2EDTA plasma acidified to pH 2.5, immediately and after 60 min at room temperature, measured 3 times
[7] = K2EDTA plasma acidified to pH 4.5, immediately and after 60 min at room temperature, measured 3 times
[8] = K2EDTA plasma, non-acidified, measured immediately and after 60 min at room temperature, each sample measured 3 times
[9] = P100 (protease inhibitor cocktail) plasma, non-acidified, immediately and after 60 min at room temperature, measured 3 times
[10] = P100 plasma acidified to pH 2.5, immediately and after 60 min at room temperature, measured 3 times
[11] = P100 plasma acidified to pH 4.5, immediately and after 60 min at room temperature, measured 3 times

| Molecule | Stability in plasma acidified to pH 4.5 [1, 5] | Influence of the P100 tube (protease inhibitor cocktail) on stability [3] | Effect of cooling with ice on stability [3] | Degradation after one hour at room temperature [4, 6] | Degradation after one hour at room temperature [4, 7] | Degradation after one hour at room temperature [4, 8] | Degradation after one hour at room temperature [4, 9] | Degradation after one hour at room temperature [4, 10] | Degradation after one hour at room temperature [4, 11] | Degradation at the immediate measurement in non-acidified conditions [4] | further results |
| --- | --- | --- | --- | --- | --- | --- | --- | --- | --- | --- | --- |
| Apelin-36: synthetic apelin isoform of 36 amino acids, purchased from CPC Scientific / Phoenix Pharmaceuticals (LVQPRGSRNGPGPWQGGRRKFRRQRPRLSHKGPMPF; Apelin-36; UniProt Q9ULZ1 42-77, looked up) | provide stability | negative influence | cooling with ice increases stability | limited degradation | limited degradation | limited degradation | higher degradation | limited degradation | higher degradation |  | Conversion by furin (PCSK3) (Furin (PCSK3)): directly to apelin 13; Cleavage by prolyl carboxypeptidase (Prolyl carboxypeptidase; similar to ACE-2 effect): Cleaves apelin 36, 17 and pyr-apelin 13; Activation of the apelin receptor (AR) [2]: can activate the AR |
| CSCC[C@H](NC(=O)[C@@H]1CCCN1C(=O)CNC(=O)[C@H](CCCCN)NC(=O)[C@H](Cc1cnc[nH]1)NC(=O)[C@H](CO)NC(=O)[C@H](CC(C)C)NC(=O)[C@H](CCCNC(=N)N)NC(=O)[C@@H]1CCCN1C(=O)[C@H](CCCNC(=N)N)NC(=O)[C@@H](N)CCC(N)=O)C(=O)N1CCC[C@H]1C(=O)N[C@@H](Cc1ccccc1)C(=O)O [Apelin-13] | provide stability | small added value | cooling with ice increases stability | minor degradation | minor degradation | rapid degradation | rapid degradation | minor degradation | minor degradation | immediate degradation | Appearance of apelin-pyr-13 after spiking synthetic apelin-13 ([4]; K2EDTA plasma non-acidified): minimal; Appearance of apelin-pyr-13 after spiking synthetic apelin-13 ([4]; K2EDTA plasma pH 2.5): ~25%; Appearance of apelin-pyr-13 after spiking synthetic apelin-13 ([4]; K2EDTA plasma pH 4.5): ~3 × |
| NGPGPWQGGRRKFRRQRPRLSHKGPMPF [Apelin-28] |  |  |  |  |  |  |  |  |  |  | Influence of pH on stability in K2EDTA plasma ([4]; K2EDTA plasma non-acidified vs pH 4.5 vs pH 2.5, 60 min at room temperature): slightly better stability in K2EDTA plasma at pH 4.5 and pH 2.5 than in non-acidified plasma |
| CSCC[C@H](NC(=O)[C@@H]1CCCN1C(=O)CNC(=O)[C@H](CCCCN)NC(=O)[C@H](Cc1cnc[nH]1)NC(=O)[C@H](CO)NC(=O)[C@H](CC(C)C)NC(=O)[C@H](CCCNC(=N)N)NC(=O)[C@@H]1CCCN1C(=O)[C@H](CCCNC(=N)N)NC(=O)[C@H](CCC(N)=O)NC(=O)[C@H](CCCNC(=N)N)NC(=O)[C@H](CCCNC(=N)N)NC(=O)[C@H](Cc1ccccc1)NC(=O)[C@@H](N)CCCCN)C(=O)N1CCC[C@H]1C(=O)N[C@@H](Cc1ccccc1)C(=O)O [Apelin-17] |  |  |  |  |  |  |  |  |  |  | Degradation after one hour at room temperature (pH 2.5): minor degradation; Degradation after one hour at room temperature (pH 4.5): minor degradation; Stability in plasma acidified to pH 4.5 ([1]; pH 4.5): provide stability; Cleavage by kallikrein (Kallikrein): Cleaves the 3N-terminal amino acids of apelin-17; Cleavage by prolyl carboxypeptidase (Prolyl carboxypeptidase): Cleaves apelin 36, 17 and pyr-apelin 13 |
| CSCC[C@H](NC(=O)[C@@H]1CCCN1C(=O)CNC(=O)[C@H](CCCCN)NC(=O)[C@H](Cc1c[nH]cn1)NC(=O)[C@H](CO)NC(=O)[C@H](CC(C)C)NC(=O)[C@H](CCCNC(=N)N)NC(=O)[C@@H]1CCCN1C(=O)[C@@H](N)CCCNC(=N)N)C(=O)N1CCC[C@H]1C(=O)N[C@@H](Cc1ccccc1)C(=O)O [Apelin-12] |  |  | cooling with ice increases stability |  |  |  |  |  |  | immediate degradation | Storage pH giving the best stability in plasma ([4]; plasma non-acidified, pH 4.5 or pH 2.5, 60 min at room temperature): most stable at pH 2.5 |
